The record followed here is patent US20090297534A1, “Catalytic Immunoglobulins BBK32 and Uses Therefor” (priority 2005, published 2009).

The test system of experiment [1] is IgA catalyzed gp120 cleavage (salivary IgA, serum IgA). Kind of experiment: Inhibition of IgA catalyzed gp120 cleavage. Format: biochemical, human. On the procedure: Values are means of duplicates.
FIG. 20B depicts streptavidin-peroxidase stained SDS-gel blots (reducing conditions) showing Bt-gp120 (0.1 μM) incubated in diluent (lane 1) and monoclonal IgA (80 μg/ml, from multiple myeloma subject 2582) in the absence (lane 2) or presence of Glu-Ala-Arg-AMC (lane 3; 0.2 mM). […] FIG. 20C is EP-hapten 3 which is the non-biotinylated version of EP-hapten 1.
In some experiments, the cleavage rate was expressed as the intensity of the 55 kD product band (in AVU, corrected for background intensity observed in reaction mixtures of gp120 incubated in diluent instead of Ab). For cleavage site determination, gp120 was incubated with IgA (pooled from subject codes 2288-2291), the IgA was removed by binding to an anti-human IgA column as described above, and the unbound fraction was lyophilized and redissolved in SDS-electrophoresis buffer containing 2-mercaptoethanol. The gp120 fragments in PVDF blots of SDS-gels were stained with Coomassie blue and subjected to N-terminal sequencing as described previously (33).

In experiment [2] the test system is HIV neutralizing activity of CIVIG / IgA. As to the kind of experiment: Inhibition of immunoglobulin-mediated HIV neutralization by electrophilic peptide. Format: cell-based, HIV-1. To be noted: 100 μM; for Effect on HIV neutralizing activity of serum IgA: 0.5 h preincubation, IgA 2 μg/ml. How it is done:
CIVIGm (FIG. 10A) and CIVGa (FIG. 10B) were incubated for 30 min with gp120 peptide-CRA (100 μM) or diluent, and the residual neutralization activity was determined as in FIG. 9 (CIVIGm, 10 μg/mL; CIVGa, 2 μg/mL).
HIV-1 strain, 97ZA009; host cells, phytohemagglutinin-stimulated PBMCs. Abs were incubated with the virus for 24 h. Values are expressed as percent reduction of p24 concentrations in test cultures compared to cultures that received diluent instead of the Abs (means±s.d. of 4 replicates). […] IgA purified from human serum (2 μg/ml) was preincubated (0.5 h) with EP-421-433 (100 μM), control EP-VIP or diluent, and the residual HIV neutralizing activity measured as in panel A. Data are expressed relative p24 levels observed in the absence of antibody. […] HIV was preincubated with the salivary or serum IgA for 1 h and the neutralizing activity measured as in FIG. 24A.
Covalently reactive analogs (CRAs) of polypeptides have been developed as probes for antibodies. CRAs contain an electrophilic phosphonate analog capable of irreversible binding to nucleophiles present in antibody combining sites. The covalent reaction occurs in coordination with noncovalent antigen-antibody binding, ensuring specificity, and permitting the use of peptidyl CRAs for irreversible and specific binding to the antibodies. One such peptidyl CRA reported is an analog of gp120 residues 421-433 containing the phosphonate at its C terminus (gp120 peptide CRA). This region of gp120 is a component of the superantigenic site of this protein. Neutralization of HIV-1 by CIVIGa and CIVIGm was inhibited by the gp120 peptide CRA, confirming that recognition of the gp120 superantigenic site is required for the neutralizing activity. FIGS. 10A-10B illustrate these findings. CIVIGm and CIVGa were preincubated with the gp120 peptide-CRA or diluent, and the residual neutralization activity was determined as in FIG. 9. An irrelevant peptide CRA, VIP-CRA was employed as the control reagent to rule out nonspecific effects. […]

The subject of experiment [3] is IgM Yvo. Kind of experiment: Irreversible binding of biotinylated phosphonate by IgM Yvo. To be noted: probe 500 μM; IgM Yvo 0.1 μM.
The test system of experiment [4] is IgA (serum and salivary). As to the kind of experiment: Phosphonate binding: irreversible adducts with IgA, SDS-electrophoresis, streptavidin-peroxidase. Particulars: reducing SDS-gels after heating (100° C., 5 min).
Experiment [5] deals with IgA. The format is biochemical, human.
Experiment [6] relates to Monoclonal IgA (ID 2582). Kind of experiment: Stoichiometry / active site titration of monoclonal IgA with phosphonate. The format is biochemical, human. To be noted: for x-intercept of residual activity (%) versus [inhibitor]/[IgA] plot: monoclonal IgA 2582 preincubated 18 h with 2.5-20 μM inhibitor, Glu-Ala-Arg-AMC 0.4 mM.
Setting [7] is: 10 μM, bleed 2, conditions as FIG. 22B.
[8] abbreviates: increasing concentrations 10-100 μM.

Where no end group is shown, it is not given here. A value given as a limit tells only on which side of the number the result lay.

As for “EP-VIP: VIP containing the amidinophosphonate at Lys20 side chain; control electrophilic peptide”, the “% inhibition of gp120 cleavage by IgAs of SP subjects 2097 and 2098” value in experiment [1] (equivalent concentration (10 μM) of control probe) was < 15%. The “Effect on HIV neutralizing activity of serum IgA” value in experiment [2] is recorded as “minimally influenced”.
In the case of `N=C(N)c1ccc(C(NC(=O)CCCCCNC(=O)CCCC[C@@H]2SC[C@@H]3NC(=O)N[C@@H]32)P(=O)(O)O)cc1` (stereo partly shown) [hapten 2, N-(6-biotinamidohexanoyl)amino(4-amidinophenyl)methanephosphonic acid], the “Irreversible reaction with IgM Yvo” value in experiment [3] is on record as “does not react appreciably”. In addition, in experiment [4], the “Formation of irreversible adducts with IgA” value (shortened to “Formation”) is on record as “did not inhibit IgA-catalyzed gp120 cleavage or form adducts”.
For `N=C(N)c1ccc(C(NC(=O)CCCCCNC(=O)CCCC[C@@H]2SC[C@@H]3NC(=O)N[C@@H]32)P(=O)(Oc2ccccc2)Oc2ccccc2)cc1` (stereo partly shown) [1a, diphenyl N-(6-biotinamidohexanoyl)amino(4-amidinophenyl)methanephosphonate], in experiment [5], half-maximal inhibition (IC50) required 37 ± 1 µM and the “Inhibition of catalytic activity of serum IgA” value is “inhibited the catalytic activity”. Besides, the “Irreversible reaction with IgM Yvo” value in experiment [3] is reported as “reacts irreversibly”. The “Formation” value in experiment [4] is recorded as “dominant ˜60 kD 1a-adduct of the heavy chain”. In addition, the “Formation” value in experiment [4] (listed as EP-hapten 1) is “formed adducts”.
`N=C(N)c1ccc(C(NC(=O)OCc2ccccc2)P(=O)(Oc2ccccc2)Oc2ccccc2)cc1` (stereo not shown) [1b, diphenyl N-(benzyloxycarbonyl)amino(4-amidinophenyl)methanephosphonate]: the “x-intercept of residual activity (%) versus [inhibitor]/[IgA] plot” value was 2.5 in experiment [6] and 2.4 in experiment [6] (listed as EP-hapten 3). For the same compound, in experiment [6] (monoclonal IgA, Glu-Ala-Arg-AMC substrate), the “Inhibitor needed for complete inhibition of 1 mole IgA” value was 2.4 mol.
On to “EP-421-433: gp120 residues 421-431 with the amidinophosphonate mimetic of residues 432-433 at the C-terminus (KQIINMWQEVG; not fully specified (C-terminus); printed as Lys-Gln-Ile-Ile-Asn-Met-Trp-Gln-Glu-Val-Gly)”, for which, in experiment [1] (setting [7]), the “% inhibition of gp120 cleavage by IgA of SP subject 2097” value is reported as 89±6% and the “% inhibition of gp120 cleavage by IgA of SP subject 2098” value was 94±12%. Further, in experiment [1] (setting [8]), the “Inhibition of cleavage of Bt-gp120 by salivary IgA” value is recorded as 21-85% and the “Inhibition of cleavage of Bt-gp120 by serum IgA” value is reported as 41-91%. In experiment [2] (30 min preincubation, CIVIGm 10 μg/mL, CIVGa 2 μg/mL), the “Inhibition of HIV-1 neutralization by CIVIGa and CIVIGm” value was “inhibited”. In experiment [2], the “Effect on HIV neutralizing activity of serum IgA” value is “inhibited the neutralizing activity”. For the same compound, in experiment [4], the “Formation” value is “superior irreversible binding”.
